{"source": "paper PMC7775894", "about": "(Bioorganic chemistry, 2020)", "key": {"M. tb H37Rv strain [1]": {"test_system": "M. tb H37Rv strain", "experiment": "Microplate alamarBlue assay", "format": "cell-based, Mycobacterium tuberculosis"}, "[2]": {"test_system": "Mycobacterium avium (M. avium)", "experiment": "MABA MIC against M. avium", "format": "cell-based", "conditions": "for MIC: Mycobacterium avium, read-out: M. avium MIC"}, "M. tb V4207/DS": {"test_system": "M. tb V4207/DS", "experiment": "microbe, parasite or virus in culture", "format": "cell-based", "conditions": "Mycobacterium tuberculosis, read-out: M. tb MIC V4207/DS"}, "[3]": {"test_system": "Mycobacterium abscessus (M. abs)", "experiment": "MABA MIC against M. abs", "format": "cell-based", "conditions": "for MIC: Mycobacteroides abscessus, read-out: M. abs MIC"}, "Vero cells": {"test_system": "Vero cells", "experiment": "Cytotoxicity on Vero cells", "format": "cell-based", "conditions": "SI = IC50(Vero)/MIC(H37Rv)"}, "XDR M. tb strains": {"test_system": "XDR M. tb strains", "experiment": "microbe, parasite or virus in culture", "format": "cell-based", "conditions": "Mycobacterium tuberculosis, read-out: MIC against XDR M. tb strains"}, "M. tb H37Rv strain [4]": {"test_system": "M. tb H37Rv strain", "conditions": "cited from earlier work"}, "DS- and DR-TB [5]": {"test_system": "DS- and DR-TB", "experiment": "MIC against both DS- and DR-TB as stated in text", "conditions": "Mycobacterium tuberculosis, read-out: MIC against both DS- and DR-TB"}, "physchem": {"experiment": "physchem", "conditions": "water, kinetic from dmso stock"}, "DS- and DR-TB [6]": {"test_system": "DS- and DR-TB", "conditions": "cited from earlier work"}, "[7]": {"conditions": "cited from earlier work"}, "[8]": {"conditions": "cited from earlier work", "remark": "listed apart in the source"}, "[9]": {"conditions": "Mycobacterium tuberculosis, H37RV"}, "[10]": {"conditions": "M. tb H37Rv, MABA, at least 90% growth inhibition, average of three measurements"}}, "note": "“And” between values parts separate entries of the source, which are not always exact repeats. Identical values can stand only once. Like-named read-outs stand apart in the source and are kept apart here.", "data": [{"smiles": "Cc1ccc2[nH]c(C(=O)NC34CC5CC(CC(O)(C5)C3)C4)cc2c1", "note": "[8g, N-(3-hydroxyadamantan-1-yl)-5-methyl-1H-indole-2-carboxamide]", "values": [{"measurement": "MIC", "setting": "M. tb H37Rv strain [1]; [9]", "result": 24.7, "unit": "µM"}]}, {"smiles": "O=C(Nc1nc2ccccc2[nH]1)NC12CC3CC(CC(C3)C1)C2", "note": "[compound 12, 1-(1-adamantyl)-3-(1H-benzo[d]imidazol-2-yl)urea]", "values": [{"measurement": "MIC", "setting": "M. tb H37Rv strain [1]; [9]", "result": 25.8, "unit": "µM"}]}, {"smiles": "O=C(NC12CC3CC(CC(O)(C3)C1)C2)c1cc2cc(Cl)ccc2[nH]1", "note": "[8h, 5-chloro-N-(3-hydroxyadamantan-1-yl)-1H-indole-2-carboxamide]", "values": [{"measurement": "MIC", "setting": "M. tb H37Rv strain [1]; [10]", "result": ">93", "unit": "µM"}, {"measurement": "MIC", "setting": "M. tb H37Rv strain [1]; [9]", "result": "> 93", "unit": "µM"}]}, {"smiles": "O=C(NC12CC3CC(CC(O)(C3)C1)C2)c1cc2c(Cl)cc(Cl)cc2[nH]1", "note": "[8j, 4,6-dichloro-N-(3-hydroxyadamantan-1-yl)-1H-indole-2-carboxamide]", "values": [{"measurement": "MIC", "setting": "[2]", "result": "> 169", "unit": "µM"}, {"measurement": "MIC", "setting": "M. tb V4207/DS", "result": 1.32, "unit": "µM"}, {"measurement": "MIC", "setting": "[3]", "result": "> 169", "unit": "µM"}, {"measurement": "Selectivity index (SI)", "setting": "Vero cells", "result": "≥128"}, {"measurement": "MIC", "setting": "XDR M. tb strains", "result": 0.66, "unit": "µM"}, {"measurement": "MIC", "setting": "M. tb H37Rv strain [1]; [10]", "result": 1.32, "unit": "µM"}]}, {"smiles": "COc1ccc2[nH]c(C(=O)NC34CC5CC(CC(C5)C3)C4)cc2c1", "note": "[8d, N-(1-Adamantyl)-5-methoxy-1H-indole-2-carboxamide]", "values": [{"measurement": "MIC", "setting": "[2]", "result": "> 197", "unit": "µM"}, {"measurement": "MIC", "setting": "M. tb V4207/DS", "result": "0.39 to 0.77", "unit": "µM"}, {"measurement": "MIC", "setting": "[3]", "result": "> 197", "unit": "µM"}, {"measurement": "Selectivity index (SI)", "setting": "Vero cells", "result": "≥256"}, {"measurement": "MIC", "setting": "M. tb H37Rv strain [1]; [9]", "result": 0.77, "unit": "µM"}]}, {"smiles": "O=C(CC12CC3CC(CC(C3)C1)C2)Nc1nc2ccccc2[nH]1", "note": "[13b, 2-(1-Adamantyl)-N-(1H-benzo[d]imidazol-2-yl)acetamide]", "values": [{"measurement": "MIC", "setting": "M. tb H37Rv strain [1]; [10]", "result": ">103", "unit": "µM"}, {"measurement": "MIC", "setting": "M. tb H37Rv strain [1]; [9]", "result": "> 103", "unit": "µM"}]}, {"smiles": "O=C(Nc1ccc(F)c(F)c1F)NC1C2CC3CC(C2)CC1C3", "note": "(centres unmarked) [compound 4]", "values": [{"measurement": "MIC", "setting": "M. tb H37Rv strain [4]; ref 26, 43", "result": "0.03–0.3 [26, 43] μM"}]}, {"smiles": "O=C(NC12CC3CC(CC(C3)C1)C2)c1cc2c(F)cc(F)cc2[nH]1", "note": "[8k, N-(1-Adamantyl)-4,6-difluoro-1H-indole-2-carboxamide]", "values": [{"measurement": "MIC", "setting": "[2]", "result": "> 194", "unit": "µM"}, {"measurement": "MIC", "setting": "DS- and DR-TB [5]", "result": "0.012 to 0.024", "unit": "µM"}, {"measurement": "MIC", "setting": "M. tb V4207/DS", "result": 0.024, "unit": "µM"}, {"measurement": "MIC", "setting": "[3]", "result": "> 194", "unit": "µM"}, {"measurement": "solubility kinetic", "setting": "physchem", "result": 0.007, "unit": "mg/mL"}, {"measurement": "Selectivity index (SI)", "setting": "Vero cells", "result": "≥8205"}, {"measurement": "MIC", "setting": "XDR M. tb strains", "result": 0.012, "unit": "µM"}, {"measurement": "MIC", "setting": "M. tb H37Rv strain [1]; [9]", "result": 0.024, "unit": "µM"}]}, {"smiles": "Cc1ccc2[nH]c(C(=O)NC34CC5CC(CC(C5)C3)C4)cc2c1", "note": "[8f, N-(1-Adamantyl)-5-methyl-1H-indole-2-carboxamide]", "values": [{"measurement": "MIC", "setting": "[2]", "result": "> 207", "unit": "µM"}, {"measurement": "MIC", "setting": "M. tb V4207/DS", "result": 0.2, "unit": "µM"}, {"measurement": "MIC", "setting": "[3]", "result": "> 207", "unit": "µM"}, {"measurement": "Selectivity index (SI)", "setting": "Vero cells", "result": "≥1024"}, {"measurement": "MIC", "setting": "M. tb H37Rv strain [1]; [9]", "result": 0.2, "unit": "µM"}]}, {"smiles": "O=C(Nc1cc(Cl)cc(Cl)c1)NC12CC3CC(CC(O)(C3)C1)C2", "note": "[10b, 1-(3,5-dichlorophenyl)-3-(3-hydroxyadamantan-1-yl)urea]", "values": [{"measurement": "MIC", "setting": "M. tb H37Rv strain [1]; [9]", "result": "> 90", "unit": "µM"}]}, {"smiles": "COc1ccc2[nH]c(C(=O)NC34CC5CC(CC(O)(C5)C3)C4)cc2c1", "note": "[8e, N-(3-hydroxyadamantan-1-yl)-5-methoxy-1H-indole-2-carboxamide]", "values": [{"measurement": "MIC", "setting": "M. tb H37Rv strain [1]; [9]", "result": 47, "unit": "µM"}]}, {"smiles": "COc1nc2ccc(Br)cc2cc1[C@@H](c1ccccc1)[C@@](O)(CCN(C)C)c1cccc2ccccc12", "note": "[bedaquiline]", "values": [{"measurement": "MIC against both DS- and DR-TB", "setting": "DS- and DR-TB [6]", "result": 0.11, "unit": "µM"}, {"measurement": "logP", "setting": "[7]", "result": "> 7"}]}, {"smiles": "O=C(NC12CC3CC(CC(O)(C3)C1)C2)c1cc2c(F)cc(F)cc2[nH]1", "note": "[8l, 4,6-difluoro-N-(3-hydroxyadamantan-1-yl)-1H-indole-2-carboxamide]", "values": [{"measurement": "MIC", "setting": "[2]", "result": "> 185", "unit": "µM"}, {"measurement": "MIC", "setting": "M. tb V4207/DS", "result": 2.89, "unit": "µM"}, {"measurement": "MIC", "setting": "[3]", "result": "> 185", "unit": "µM"}, {"measurement": "solubility kinetic", "setting": "physchem", "result": 0.019, "unit": "mg/mL"}, {"measurement": "Selectivity index (SI)", "setting": "Vero cells", "result": 32}]}, {"smiles": "O=C(Nc1cc(Cl)cc(Cl)c1)NC12CC3CC(CC(C3)C1)C2", "note": "[10a, 1-(1-Adamantyl)-3-(3,5-dichlorophenyl)urea]", "values": [{"measurement": "MIC", "setting": "[2]", "result": 47.2, "unit": "µM"}, {"measurement": "MIC", "setting": "M. tb V4207/DS", "result": 1.47, "unit": "µM"}, {"measurement": "M. abs MIC", "setting": "[3]; MABA", "result": ">189", "unit": "µM"}, {"measurement": "MIC", "setting": "[3]", "result": "> 189", "unit": "µM"}, {"measurement": "Selectivity index (SI)", "setting": "Vero cells", "result": 4.0}]}, {"smiles": "CC1(C)CCC(NC(=O)c2cc3c(Cl)cc(Cl)cc3[nH]2)CC1", "note": "[compound 1]", "values": [{"measurement": "MIC", "setting": "M. tb H37Rv strain [4]; ref 23", "result": "0.015 [23] μM"}]}, {"smiles": "O=C(NC12CC3CC(CC(O)(C3)C1)C2)c1cc2ccccc2[nH]1", "note": "[8a, N-(3-hydroxyadamantan-1-yl)-1H-indole-2-carboxamide]", "values": [{"measurement": "MIC", "setting": "M. tb H37Rv strain [1]; [9]", "result": 51.5, "unit": "µM"}]}, {"smiles": "O=C(NC12CC3CC(CC(O)(C3)C1)C2)c1cc2ccc(Br)cc2[nH]1", "note": "[8i, 6-bromo-N-(3-hydroxyadamantan-1-yl)-1H-indole-2-carboxamide]", "values": [{"measurement": "MIC", "setting": "[2]", "result": "> 164", "unit": "µM"}, {"measurement": "MIC", "setting": "M. tb V4207/DS", "result": 5.14, "unit": "µM"}, {"measurement": "MIC", "setting": "[3]", "result": "> 164", "unit": "µM"}, {"measurement": "Selectivity index (SI)", "setting": "Vero cells", "result": 32}, {"measurement": "MIC", "setting": "M. tb H37Rv strain [1]; [9]", "result": "1.32 to 2.89", "unit": "µM"}]}, {"smiles": "COc1cccc2[nH]c(C(=O)NC34CC5CC(CC(C5)C3)C4)cc12", "note": "[8b, N-(1-Adamantyl)-4-methoxy-1H-indole-2-carboxamide]", "values": [{"measurement": "M. avium MIC", "setting": "[2]; MABA", "result": ">197", "unit": "µM"}, {"measurement": "MIC", "setting": "[2]", "result": "> 197", "unit": "µM"}, {"measurement": "MIC", "setting": "M. tb V4207/DS", "result": 0.096, "unit": "µM"}, {"measurement": "MIC", "setting": "[3]", "result": 12.3, "unit": "µM"}, {"measurement": "solubility kinetic", "setting": "physchem", "result": 0.005, "unit": "mg/mL"}, {"measurement": "Selectivity index (SI)", "setting": "Vero cells", "result": "≥2048"}, {"measurement": "MIC", "setting": "M. tb H37Rv strain [1]; [9]", "result": 0.096, "unit": "µM"}]}, {"smiles": "COc1cccc2[nH]c(C(=O)NC34CC5CC(CC(O)(C5)C3)C4)cc12", "note": "[8c, N-(3-hydroxyadamantan-1-yl)-4-methoxy-1H-indole-2-carboxamide]", "values": [{"measurement": "solubility kinetic", "setting": "physchem", "result": 0.03, "unit": "mg/mL"}, {"measurement": "MIC", "setting": "M. tb H37Rv strain [1]; [9]", "result": 11.7, "unit": "µM"}]}, {"smiles": "O=C(Nc1nc2ccccc2[nH]1)C12CC3CC(CC(C3)C1)C2", "note": "[13a, N-(1H-benzo[d]imidazol-2-yl)adamantane-1-carboxamide]", "values": [{"measurement": "MIC", "setting": "M. tb H37Rv strain [1]; [9]", "result": 13.5, "unit": "µM"}]}, {"smiles": "O=C(NC12CC3CC(CC(C3)C1)C2)c1cc2c(Cl)cc(Cl)cc2[nH]1", "note": "[compound 2, N-(1-adamantyl)-4,6-dichloroindole-2-carboxamide]", "values": [{"measurement": "in vivo activity", "setting": "[8]; due to poor bioavailability", "result": "inactive in vivo"}, {"measurement": "in vivo activity", "setting": "[8]; likely due to poor bioavailability", "result": "inactive in vivo"}, {"measurement": "MIC", "setting": "M. tb H37Rv strain [4]; ref 45", "result": "0.011 μM and 0.011 [45] μM"}]}]}
